Measured values reported in PubChem BioAssay (NCI).
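Step 1: Grow cells in 96-well plates. Step 2: Expose to compound for 48 hours at 5 concentrations. Step 3: Interpolate endpoints linearly; if unreached, use highest concentration. Here, GI50 denotes the concentration required for 50% inhibition of growth. At the TGI there is no net growth.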

Assays:
Experiment in all cases: NCI anticancer screen, dose series, 48 h
[1] = test system: ACHN renal
[2] = test system: OVCAR-3 ovarian
[3] = test system: CCRF-CEM leukemia
[4] = test system: EKVX NSCLC
[5] = test system: SF-295 CNS
[6] = test system: PC-3 prostate
[7] = test system: SW-620 colon
[8] = test system: SNB-75 CNS

SMILES	GI50 [1]	TGI [1]	GI50 [2]	TGI [2]	GI50 [3]	TGI [3]	GI50 [4]	TGI [4]	GI50 [5]	TGI [5]	GI50 [6]	TGI [6]	GI50 [7]	TGI [7]	GI50 [8]	TGI [8]
CCCCCC[C@H]1C(=O)O[C@H](C)[C@H](NC(=O)c2cccc(NC=O)c2OC)C(=O)O[C@@H](C)[C@@H]1OC(=O)CCC (tested in a mixture with another compound)	10.1 µM	23.1 µM	11.1 µM	24.9 µM	3.81 µM	27.2 µM	6 µM	24.2 µM	5.99 µM	20.8 µM	6.23 µM	26.7 µM	13 µM	72.3 µM		
O=[N+]([O-])/C=C/c1ccc(Cl)cc1[N+](=O)[O-]	1.95 µM	3.79 µM			1.12 µM	8.85 µM	13.1 µM	35.1 µM	6.72 µM	21.6 µM	2.54 µM	8.34 µM			3.79 µM	15.9 µM
Cn1cnnc1[S-].[Au+].c1ccc([PH+](c2ccccc2)c2ccccc2)cc1	1.77 µM	3.16 µM	1.79 µM	3.18 µM					1.85 µM	3.82 µM	1.52 µM	3.02 µM			1.43 µM	2.74 µM
O=C(O)c1ccccc1NCn1c(=S)sc2ccccc21		> 100 µM		> 100 µM		52.2 µM		> 100 µM		> 100 µM		> 100 µM		> 100 µM		> 100 µM
O=c1cccc(Cl)[nH]1		> 100 µM		> 100 µM		> 100 µM		> 100 µM		> 100 µM		> 100 µM		> 100 µM		> 100 µM
COc1cc(-c2nn(-c3cccc(NC(=O)CCN4CCN(c5ccccc5)CC4)c3)cc2-c2ccncc2)ccc1Cl	2.67 µM	> 100 µM	2.68 µM	9.73 µM	3.38 µM	> 100 µM	3.31 µM	> 100 µM	2.41 µM	18 µM	3.1 µM	> 100 µM	4.09 µM	> 100 µM	4.13 µM	> 100 µM
COc1cc(N(C)C)c(OC)cc1C=C1C=CC=C1		> 100 µM		> 100 µM		> 100 µM		> 100 µM		> 100 µM		> 100 µM		> 100 µM		
CCOC(=O)[C@@H]1CSC(CC)=C(C(=O)O)N1	> 100 µM	> 100 µM	> 100 µM	> 100 µM	> 100 µM	> 100 µM	> 100 µM	> 100 µM	> 100 µM	> 100 µM	> 100 µM	> 100 µM	> 100 µM	> 100 µM	> 100 µM	> 100 µM
COc1cc(-c2nn(-c3cccc(NC(=O)CCNc4ccc(N5CCOCC5)cc4)c3)cc2-c2ccncc2)ccc1Cl	2.44 µM	41.4 µM	2.45 µM	8.55 µM	2.95 µM	> 100 µM	3.07 µM	> 100 µM	2.09 µM	26 µM	2.8 µM	31.4 µM	3.55 µM	> 100 µM	4.22 µM	> 100 µM
CCOC(=O)c1c(NC(=O)c2ccc(Cl)cc2)sc2c(CN(C)C)c(O)ccc12	4.28 µM	18.3 µM	16.2 µM	> 100 µM	13.3 µM	> 100 µM	10.1 µM	31.8 µM	3.79 µM	16.4 µM	8.44 µM	37.3 µM	2.4 µM	7.33 µM	3.25 µM	19 µM
CC(C)OP(=O)(O)c1ncc(-c2ccc(C(F)(F)F)cc2)c(NC2CCCCCC2)n1	> 100 µM	> 100 µM	87 µM	> 100 µM	> 100 µM	> 100 µM			> 100 µM	> 100 µM	57.1 µM	> 100 µM	> 100 µM	> 100 µM	> 100 µM	> 100 µM
C=C1C[C@@H]2O[C@H]3[C@H]4[C@@H](CC[C@@](C)(OC(=O)CCC)[C@H]42)[C@@H](C)C(=O)O[C@@]3(C)CC[C@H]1OO	17.3 µM	31.1 µM	13.9 µM	29.2 µM	4.81 µM	14.8 µM	27.7 µM	70.8 µM	17.8 µM	36.1 µM			19.6 µM	37.1 µM	20.5 µM	44.6 µM
COc1cc(/C=C2\SC(N3CCCCC3)=NC2=O)ccc1OCCCCCCOc1ccc(/C=C2\SC(N3CCCCC3)=NC2=O)cc1OC	15.1 µM	34.2 µM	6.04 µM	18.7 µM			12 µM	76.6 µM	13.7 µM	47.5 µM	12.4 µM	56.7 µM	14.9 µM	48.3 µM	2.34 µM	6.4 µM
COc1ccc(C)cc1NC(=S)C#N		> 100 µM		> 100 µM		> 100 µM				> 100 µM		> 100 µM		> 100 µM		> 100 µM
OCCN(CO)CO		> 100 µM		> 100 µM				> 100 µM		> 100 µM		> 100 µM		> 100 µM		> 100 µM
COc1ccc(-c2cc(/C=C/C(=O)c3ccc(N)cc3)[nH]n2)cc1	2.01 µM	10.6 µM	1.25 µM	2.97 µM	1.32 µM	4.91 µM			3.09 µM	13.1 µM	2.42 µM	10.1 µM	1.69 µM	5.41 µM	2.25 µM	11.4 µM
Clc1ccc(CN2CCCN(Cc3ccc(Cl)cc3)C2c2cc3ccccc3c3ccccc23)cc1		> 100 µM		> 100 µM				> 100 µM		> 100 µM		> 100 µM		> 100 µM		78.5 µM
CCOC1Oc2ccc(C)cc2C(=O)/C1=C\Nc1ccc(S(N)(=O)=O)cc1 (centres undefined)	12.6 µM	45 µM	12.5 µM	36.5 µM			9.43 µM	31.4 µM	12.6 µM	35.7 µM	16.6 µM	> 50 µM	15.3 µM	> 50 µM	18.5 µM	> 50 µM
